Laboratory results taken from BigSolDB 2.1.

C[C@@H](O)[C@H]1C(=O)N2C(C(=O)[O-])=C(SC3Cn4cnc[n+]4C3)[C@H](C)[C@H]12 (stereo partly drawn)
solubility (mole fraction)
Conditions	in DMF	in DMSO	in NMP	in acetone	in acetonitrile	in ethanol	in ethyl acetate	in isopropanol	in methanol	in n-propanol
283.15 K	5.8e-05	–	7.58e-05	1.77e-06	3.63e-05	1.49e-05	5.21e-05	6.66e-06	1.86e-05	1.17e-05
288.15 K	6.44e-05	–	8.14e-05	2.51e-06	4.07e-05	1.76e-05	5.73e-05	8.24e-06	2.19e-05	1.37e-05
293.15 K	7.11e-05	7.86e-05	8.79e-05	3.4e-06	4.61e-05	2.09e-05	6.48e-05	9.98e-06	2.59e-05	1.62e-05
298.15 K	7.8e-05	8.66e-05	9.66e-05	4.57e-06	5.17e-05	2.46e-05	7.16e-05	1.2e-05	3.07e-05	1.97e-05
303.15 K	8.72e-05	9.47e-05	0.000106	5.97e-06	5.82e-05	2.9e-05	7.97e-05	1.41e-05	3.57e-05	2.32e-05
308.15 K	9.65e-05	0.000104	0.000117	8.13e-06	6.67e-05	3.41e-05	8.9e-05	1.69e-05	4.18e-05	2.7e-05
313.15 K	0.000107	0.000116	0.000128	1.06e-05	7.46e-05	3.97e-05	9.93e-05	2e-05	4.9e-05	3.19e-05
318.15 K	0.000119	0.000129	0.000141	1.39e-05	8.5e-05	4.54e-05	0.000111	2.37e-05	5.63e-05	3.71e-05
323.15 K	0.000131	0.000142	0.000156	1.79e-05	9.56e-05	5.23e-05	0.000123	2.79e-05	6.61e-05	4.32e-05
